From patent US9402919B2, “Vectors conditionally expressing protein” (Intrexon Corporation, priority 2011, dated 2016)

Experiments:
[1] = system: Lewis lung carcinoma (LLC); assay: Syngeneic Lewis lung carcinoma model: tumor growth after i.t. Ad-RTS vectors with oral AL; type: in vivo, mice; conditions: oral AL alone in feed at 1000 ppm (~225 mg/kg/day)
From the text: Current cancer immunotherapies have provided limited success in the clinic and innovative strategies are required to further enhance the effectiveness of an anti-tumor immune response. This study assessed anti-tumor activity utilizing intratumoral (i.t.) administration of adenovirus (Ad) with the novel Rheoswitch Therapeutic System® (RTS®), an inducible promoter system, for regulated expression of murine IL-12 or IFNa. Oral administration of a small molecule activator ligand (AL), INXN-1001, regulates the expression of IL-12 in Ad-RTS-mIL-12 and IFNa in Ad-RTS-mIFNa. The regulated expression and therapeutic benefit of IL-12 and IFNa from i.t. administered Ad-RTS-mIL-12 and Ad-RTS-mIFNa, either alone or in combination, was examined in syngeneic Lewis lung carcinoma (LLC) and syngeneic mammary carcinoma (4T1) models.
In contrast, i.t. injection with 10^10 vp Ad-RTS-mIL-12 or Ad-RTS-mIFNa and daily oral AL led to significant tumor growth inhibition by day 25 (72 and 71%, respectively; p<0.05). […] Future studies will investigate the mechanism by which both IL-12 and IFNα exert their anti-tumor effect in the above tumor models.
LLC and 4T1 cells were transiently transduced with Ad-RTS-murine IL12 or Ad-RTS-murine IFNa at a MOI of 100. […] Supernatants were collected at 48 h and cytokine levels assessed by ELISA. n=3, mean±s.d. […]

[2] = Plasma HuEPO expression as a function of activator ligand dose in chow after IM AAV-HuEPO (0034A); type: in vivo
Experimental: Animals were anesthetized, their quadriceps were visualized and the injection site sterilized. The mice were injected with vector using a 0.5 ml insulin syringe and a 29.5 gauge needle. Each animal was injected with total of 10^11 virus genomes in a 100 μl volume. After the procedure, the animals were placed in their cage and observed for normal ambulation.
Plasma samples were assayed for the presence of human erythropoietin using Enzyme Linked Immunosorbent Assay (ELISA) (StemCell Technologies, #01630).
Animals were bled for baseline HCT levels, followed by IM administration of 10^11 AAV-HuEPO viral genomes per animal (0034A). Animals received activator ligand-containing chow, with activator ligand concentrations 1000 mg/kg (18-1000), 250 mg/kg (18-250), 100 mg/kg (18-100), 50 mg/kg (18-50), or 0 mg/kg (18-0) starting on the day of AAV administration. Control animals received either vector administration and normal chow (no activator ligand, 18-0), or they received vehicle-alone IM administration (saline) with (18-1000) or without (18-0) activator ligand. HCT and HuEPO expression levels were measured in all groups every 7 days.

[3] = system: murine melanoma, B16F0; assay: Bilateral B16F0 melanoma model: tumor volume after intratumoral Ad-RTS-mIL12; type: in vivo, C57BL/6 mice; conditions: day 21 post cell inoculation; activator ligand chow 1000 mg/kg alone, no vector
From the text: We investigated if the treatment of a local tumor with Ad-RTS-mIL12 (resulting in local tumor growth regression) would also lead to anti-tumor activity in the distant tumor. Toward this goal, we developed melanoma tumors on both flank regions of immunocompetent mice (C57BL/6) and treated the tumor on the right flank with Ad-RTS-mIL12 in the presence of activator ligand.
Six- to eight-week-old female C57B1/6 mice were purchased from Harlan (USA). Animal care and experimental procedures were performed according to Intrexon's Institutional Animal Care and Use Committee guidelines.
The murine melanoma (B16F0) cells were purchased from ATCC (Manassas, Va.). B16F0 cells were grown in Dulbecco's modified Eagle's medium (ATCC, Manassas, Va.), The DMEM was supplemented with heat-inactivated fetal calf serum (FCS) 10% v/v, 2-mM L-glutamine (Atlanta Biologicals, Inc, Lawrenceville, Ga.), 100 IU/ml […], and 100 μg/ml streptomycin. The cells were grown at 37° C. in 5% CO2. All cell lines were routinely tested and found to be free of mycoplasma. […]
Vector was administered intratumorally on Day 12 and Day 19 post tumor cell inoculation. Tumor size and body weight of each mouse were monitored three times a week until the end of the study. […]
The tumor volumes were calculated using the formula, L×W^2/2. […]

Row | Structure (SMILES) | inhibition of tumor growth compared to control, untreated tumors [1] | plasma HuEPO expression ([2]; ligand chow 50 mg/kg (18-50), 14 and 21 days, 0034A IM) | plasma HuEPO expression ([2]; ligand chow 50 mg/kg (18-50), 7 days, 0034A 10^11 viral genomes IM, limit of sensitivity of the assay) [mU/ml] | plasma HuEPO expression ([2]; ligand chow 100 mg/kg (18-100), 7 days, 0034A IM) | average tumor volume, right flank tumor [3] [mm^3]
1 | CCC[C@@H](N(NC(=O)c1cccc(OC)c1CC)C(=O)c1cc(C)cc(C)c1)C(C)(C)C [AL] | did not result in significant inhibition of tumor growth |  |  |  | 
2 | CCC[C@@H](N(NC(=O)c1cccc(OC)c1CC)C(=O)c1cc(C)cc(C)c1)C(C)(C)C [activator ligand, (R)-3,5-Dimethyl-benzoic acid N-(1-tert-butyl-butyl)-N′-(2-ethyl-3-methoxy-benzoyl)-hydrazide] |  | detectable | ≤ 8 | lower HuEPO expression | 924±80
